Results on seven compounds are retold here after patent publication US20100056791A1, “Pyrazolopyridine carboxamide derivative and phosphodiesterase (pde) inhibitor containing the same” (priority 2006, published 2010).

Assay [1] concerns histamine-induced bronchoconstriction. Put plainly: Histamine-induced airway contraction reaction in guinea pigs. Type of assay: in vivo. As to conditions: Cavia porcellus, iv, 0.5 min, i.v., 0.1 mg/kg administration (not in brackets), 30 seconds after administration, read-out: Inhibition ratio. How it is done:
Guinea pigs were anesthetized with pentobarbital (30 mg/kg, i.p.). A cannula for intravenous administration, a cannula for collecting blood and measuring blood pressure, and a tracheal cannula were inserted into the left external jugular vein, right internal carotid artery, and trachea, respectively. The guinea pigs were maintained on artificial respiration under the conditions of 60 times/min and 10 mL/kg/stroke. The airflow from the side branch of the tracheal cannula was measured by a bronchospasm transducer (Ugo-Basile) and recorded on a computer via Power Lab (ADInstruments Japan). The guinea pigs were immobilized with gallamine (10 mg/kg, i.v.), and histamine was administered at 10-minute intervals (12.5 μg/kg, i.v.). […] We examined the inhibitory action of test compounds on histamine-induced bronchoconstriction 30 seconds after compounds administration. Bronchoconstriction was recorded as the amount of airflow, and the results were represented by the ratio of the maximum value of the histamine-induced airflow 30 seconds after the administration to the maximum value of the airflow before the administration. When the inhibition ratio≧90%, the results were represented by “+++.” When 90%>the inhibition ratio≧70%, the results were represented by “++.” When 70%>the inhibition ratio≧30%, the results were represented by “+.” The results shown in brackets are for 0.3 mg/kg administration, and the other results are for 0.1 mg/kg administration.

Assay [2] has as its system LPS-induced leukocytes in bronchoalveolar lavage fluid. Put plainly: LPS acute inflammation model in rats (total leukocytes in BALF). Type of assay: in vivo. As to conditions: 1 mg/kg orally one hour before LPS inhalation, total leukocytes in BALF 3 hours after LPS. How it is done:
1 mg/kg of the compounds were orally administered to rats one hour before inhalation of lipopolysaccharide (LPS) from E. coli serotype 055:B5, rats were inhaled nebulizing LPS solution (50 mL) by nebulizer for 30 minutes. Then, 3 hours after the LPS inhalation, the rats were euthanized with 20% urethane (5 ml/rat, i.p.). 5 ml of physiological saline for bronchoalveolar lavage was injected into the bronchial tubes and alveoli through the airway, and the bronchial tubes and alveoli were washed 3 times using a 5 mL syringe. This procedure was repeated twice, and the solution was collected as bronchoalveolar lavage fluid (BALF). The collected BALF was centrifuged at 1,200 rpm and […] for 10 minutes (Hirtachi; himac CR 5 DL). The sediment was re-suspended in 10 mL of a 0.1% bovine serum albumin-physiological saline, and an equivalent amount of Turk's solution was added to the suspension to stain leukocytes. The total number of leukocytes was counted under a microscope to determine the inhibition ratio. When the inhibition ratio≧60%, the results were represented by “++.” When 60%>the inhibition ratio≧50%, the results were represented by “+.”

In assay [3] the target is T1, PDE4B catalytic domain (PDE4Bcat) (Homo sapiens, UniProt Q07343).
T1 construct: The cDNA of PDE4B catalytic domain (hereinafter abbreviated as Cat) was isolated from human RNA by RT-PCR; made in house; host or cells: Sf9 insect cells (baculovirus, Gateway / Bac-to-Bac)
Put plainly: Phosphodiesterase inhibitory activity ([3H]cAMP breakdown, recombinant PDE4Bcat). In kind it is biochemical. As to conditions: 30° C. 20 minutes, read-out: IC50(μmol/L) PDE4. The source says: The cDNA of PDE4B catalytic domain (hereinafter abbreviated as Cat) was isolated from human RNA by RT-PCR. The isolated cDNA fragments were inserted into Sf9 insect cells using Gateway system (product of Invitrogen Corporation) and Bac-to-Bac (registered trademark) Baculovirus Expression system (product of Invitrogen Corporation) to express a target PDE protein. The recombinant PDE4Bcat was purified from the culture supernatants or cell extracts of Sf9 cells expressing high levels of the PDE protein by ion exchange chromatography and was used for the following experiments.
A 4 mmol/L solution of each test compound was serially diluted four-fold with a 15% DMSO solution to prepare solutions with concentrations of 15 nmol/L to 4 mmol/L (the final concentrations used in the experiments were 1.5 nmol/L to 400 μmol/L). 10 μL of the prepared test compound solutions, [3H] cAMP diluted with a buffer solution (40 mmol/L Tris-HCl (pH: 7.4), 10 mmol/L MgCl2), and 40 μL of the recombinant human PDE protein (2×10^−6 units, 1 unit is defined as the amount of PDE that breaks down 1 μmol/L of cAMP in one minute under the conditions of a pH of 7.5 and 30° C.) were added to a 96-well plate. The mixtures were reacted at 30° C. for 20 minutes. Then, the resultant mixtures were reacted at 65° C. for 2 minutes. Subsequently, 25 μL of 1 mg/mL5′-nucleotidase (Crotalus atrox venom, product of Sigma) was added to the mixtures, and the mixtures were reacted at 30° C. for 10 minutes. After completion of the reaction, 200 μL of a solution of Dowex (300 mg/mL Dowex 1×8-400 (product of Sigma Aldrich), 33% ethanol) was added to the mixtures, and the mixtures were shaken at 4° C. for 20 minutes. Subsequently, 200 μL of MicroScint 20 (product of Packard) was added to the mixtures, and measurement was performed using a scintillation counter (Topcount, product of Packard). IC50 values were calculated using Graph Pad Prism v3.03 (product of GraphPad Software). When […], the results were represented by “+.” When 0.1 μmol/L>the IC50 value, the results were represented by “++.”

T1 sequence (Q07343 330-659 limits assumed): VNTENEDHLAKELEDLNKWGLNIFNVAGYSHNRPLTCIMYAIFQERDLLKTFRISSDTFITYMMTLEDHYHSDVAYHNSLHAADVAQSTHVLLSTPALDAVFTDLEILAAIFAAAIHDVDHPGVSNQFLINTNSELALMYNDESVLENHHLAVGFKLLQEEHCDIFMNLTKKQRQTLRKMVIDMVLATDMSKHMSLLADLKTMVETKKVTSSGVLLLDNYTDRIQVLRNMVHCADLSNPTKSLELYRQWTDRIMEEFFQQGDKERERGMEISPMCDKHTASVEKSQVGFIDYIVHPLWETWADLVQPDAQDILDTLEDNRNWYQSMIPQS

On to `CCc1cc2c(C(=O)Nc3c(Cl)cncc3Cl)ccc(OC)n2n1` [Example 9, 2-Ethyl-7-methoxypyrazolo[1,5-a]pyridine-4-carboxylic acid (3,5-dichloropyridin-4-yl)amide], for which, in assay [1], the inhibition in vivo at 0.1 mg/kg fell in the range of 70 to 90%. The Inhibition ratio result in assay [2] is “+ (When 60%>the inhibition ratio≧50%, the results were represented by “+.”)”. In addition, the IC50 in assay [3] is below 0.1 µmol/L.
For the compound `COc1ccc(C(=O)Nc2c(Cl)cncc2Cl)c2cc(C(F)(F)F)nn12` [Example 16, 7-Methoxy-2-trifluoromethylpyrazolo[1,5-a]pyridine-4-carboxylic acid (3,5-dichloropyridin-4-yl)amide], in assay [1], the inhibition in vivo at 0.1 mg/kg was at least 90%. Further, the Inhibition ratio result in assay [2] is listed as “++ (When the inhibition ratio≧60%, the results were represented by “++.”)”. Further, in assay [3], the IC50 was below 0.1 µmol/L.
Turning to `COc1ccc(C(=O)Nc2c(Cl)cncc2Cl)c2cc(C=NO)nn12` [Example 82, 2-(Hydroxyiminomethy)-7-methoxypyrazolo[1,5-a]pyridine-4-carboxylic acid (3,5-dichloropyridin-4-yl)amide], in assay [1], the inhibition in vivo at 0.1 mg/kg was in the range of 70 to 90%. In assay [3], the IC50 is below 0.1 µmol/L.
Consider `COc1ccc(C(=O)Nc2c(Cl)cncc2Cl)c2cc(C#N)nn12` [Example 83, 2-Cyano-7-methoxypyrazolo[1,5-a]pyridine-4-carboxylic acid (3,5-dichloropyridin-4-yl)amide], for which the inhibition in vivo at 0.1 mg/kg in assay [1] is at least 90%. Also, the IC50 in assay [3] was below 0.1 µmol/L.
Consider `CSc1ccc(C(=O)Nc2c(Cl)cncc2Cl)c2cc(C(F)(F)F)nn12` [Example 92, 7-Methylsulfanyl-2-trifluoromethylpyrazolo[1,5-a]pyridine-4-carboxylic acid (3,5-dichloropyridin-4-yl)amide], for which the inhibition in vivo at 0.1 mg/kg in assay [1] was in the range of 30 to 70%. Besides, in assay [3], the IC50 was below 0.1 µmol/L.
On the same counts, the results for `O=C(Nc1c(Cl)cncc1Cl)c1ccc(CO)n2nc(C(F)(F)F)cc12` [Example 105, 7-Hydroxymethyl-2-trifluoromethylpyrazolo[1,5-a]pyridine-4-carboxylic acid (3,5-dichloropyridin-4-yl)amide] are at least 90% and below 0.1 µmol/L.
Take `CC(O)c1ccc(C(=O)Nc2c(Cl)cncc2Cl)c2cc(C(F)(F)F)nn12` (centres unmarked) [Example 107, 7-(1-Hydroxyethyl)-2-trifluoromethylpyrazolo[1,5-a]pyridine-4-carboxylic acid (3,5-dichloropyridin-4-yl)amide]: in assay [1], the inhibition in vivo at 0.1 mg/kg fell in the range of 70 to 90%. Further, in assay [2], the Inhibition ratio result is listed as “+ (When 60%>the inhibition ratio≧50%, the results were represented by “+.”)”. Further, in assay [3], the IC50 is below 0.1 µmol/L.
